Laboratory results from ChEMBL document CHEMBL1158329, “Four new cytotoxic germacranolides from Carpesium divaricatum” (1997).
≈ marks a conversion by molar mass, not a printed value.

How the values were obtained:
Type in all cases: functional
Settings in all cases: read-out: ED50 (the source's name)
[1] = system: SK-OV-3; experiment: Cytotoxicity against human SKOV3 cells by SRB assay
[2] = system: HCT-15; experiment: Cytotoxicity against human HCT15 cells by SRB assay
[3] = system: XF498; experiment: Cytotoxicity against human XF498 cells by SRB assay
[4] = system: SK-MEL-2; experiment: Cytotoxicity against human SK-MEL-2 cells by SRB assay
[5] = system: A549; experiment: Cytotoxicity against human A549 cells by SRB assay

Structure (SMILES) | EC50 [1] [µg/mL] | EC50 [2] [µg/mL] | EC50 [3] [µg/mL] | EC50 [4] [µg/mL] | EC50 [5] [µg/mL]
C=C1C(=O)O[C@@H]2[C@@H]1[C@H](OC(=O)/C(C)=C\C)C(=O)[C@@H](C)C[C@H](O)C[C@](C)(O)[C@H]2OC(=O)C(C)CC (stereo not given in full) [CARDIVIN A] | 1.47 (≈ 3.06 µM) | 1.28 (≈ 2.66 µM) | 1.4 (≈ 2.91 µM) | 1.16 (≈ 2.41 µM) | 3.17 (≈ 6.6 µM)
C=C1C(=O)O[C@@H]2[C@@H]1[C@H](OC(=O)C(C)CC)C(=O)[C@@H](C)C[C@H](O)C[C@](C)(O)[C@H]2OC(=O)C(C)C (stereo not given in full) [CARDIVIN B] | 2.24 (≈ 4.78 µM) | 2.06 (≈ 4.4 µM) | 1.69 (≈ 3.61 µM) | 1.45 (≈ 3.09 µM) | 3.71 (≈ 7.92 µM)
C=C1C(=O)O[C@@H]2[C@@H]1[C@H](OC(=O)C(C)C)C(=O)[C@@H](C)C[C@H](O)C[C@](C)(O)[C@H]2OC(=O)/C(C)=C\C [CARDIVIN C] | 1.6 (≈ 3.43 µM) | 1.38 (≈ 2.96 µM) | 1.31 (≈ 2.81 µM) | 1.08 (≈ 2.31 µM) | 3.12 (≈ 6.69 µM)
C=C1C(=O)O[C@@H]2[C@@H]1[C@H](OC(=O)C(C)C)C(=O)[C@@H](C)C[C@H](O)C[C@](C)(O)[C@H]2OC(=O)C(C)C [CARDIVIN D] | 3.78 (≈ 8.32 µM) | 3 (≈ 6.6 µM) | 3.05 (≈ 6.71 µM) | 1.88 (≈ 4.14 µM) | 8.36 (≈ 18.4 µM)
COc1cccc2c1C(=O)c1c(O)c3c(c(O)c1C2=O)C[C@@](O)(C(=O)CO)C[C@@H]3O[C@H]1C[C@H](N)[C@H](O)[C@H](C)O1 [DOXORUBICIN] | 0.13 (≈ 0.239 µM) | 2.4 (≈ 4.42 µM) | 0.23 (≈ 0.423 µM) | 0.11 (≈ 0.202 µM) | 0.12 (≈ 0.221 µM)
